Assay results from patent US20240174624A1, “CHIRAL N-(1,3,4-OXADIAZOLE-2-YL)PHENYL CARBOXYLIC ACID AMIDES AND THEIR USE AS HERBICIDES” (Bayer Aktiengesellschaft, priority 2021, published 2024).

Tests used:
ZEAMX = test: Pre-emergence damage to crop plants; type: in vivo, Zea mays; details: comparative experiment
Text: (§1) Seeds of monocotyledonous and dicotyledonous weed plants and crop plants are laid out in sandy loam soil in wood-fibre pots and covered with soil. The compounds of the invention, formulated in the form of wettable powders (WP) or as emulsion concentrates (EC), are then applied to the surface of the covering soil in the form of an aqueous suspension or emulsion at a water application rate equivalent to 600 to 800 l/ha, with addition of 0.2% wetting agent. After the treatment, the pots are placed in a greenhouse and kept under good growth conditions for the trial plants. The damage to the test plants is scored visually after a test period of 3 weeks by comparison with untreated controls (herbicidal activity in percent (%): 100% activity=the plants have died, 0% activity=like control plants). […] The tables below illustrate, in an illustrative manner, the post-emergence herbicidal action of the compounds of the invention, the herbicidal activity being stated in percent. In the experiments that follow, the herbicidal action of the compounds of the invention and that of the corresponding known racemic compounds closest from WO2012126932 and WO2018202535 were compared under the above-specified conditions by the pre-emergence and post-emergence method. The example numbers given in the tables relate to the compounds disclosed in the respective documents.

TRZAS [1] = test: Pre-emergence damage to crop plants; type: in vivo, Triticum aestiva; details: comparative experiment
Text: as §1

GLXMA = test: Pre-emergence damage to crop plants; type: in vivo, Glycine max; details: 80 g a.i./ha, comparative experiment
Text: as §1

BRSNW = test: Pre-emergence damage to crop plants; type: in vivo, Brassica napus; details: 20 g a.i./ha, comparative experiment
Text: as §1

ORYZA = test: Post-emergence damage to crop plants; type: in vivo, Oryza sativa; details: 5 g a.i./ha, comparative experiment
Experimental: (§2) Seeds of monocotyledonous and dicotyledonous weed and crop plants are laid out in sandy loam soil in wood-fibre pots, covered with soil and cultivated in a greenhouse under good growth conditions. 2 to 3 weeks after sowing, the test plants are treated at the one-leaf stage. The compounds of the invention, formulated in the form of wettable powders (WP) or as emulsion concentrates (EC), are then sprayed onto the green parts of the plants in the form of an aqueous suspension or emulsion at a water application rate equating to 600 to 800 l/ha, with addition of 0.2% wetting agent. After the test plants have been left to stand in the greenhouse under optimal growth conditions for about 3 weeks, the action of the preparations is assessed visually in comparison to untreated controls (herbicidal action in percent (%): 100% activity=the plants have died, 0% activity=like control plants). […] The tables below illustrate, in an illustrative manner, the post-emergence herbicidal action of the compounds of the invention, the herbicidal activity being stated in percent. In the experiments that follow, the herbicidal action of the compounds of the invention and that of the corresponding known racemic compounds closest from WO2012126932 and WO2018202535 were compared under the above-specified conditions by the pre-emergence and post-emergence method. The example numbers given in the tables relate to the compounds disclosed in the respective documents.

TRZAS [2] = test: Post-emergence damage to crop plants; type: in vivo, Triticum aestiva; details: comparative experiment
Experimental: as §2

ALOMY = test: Pre-emergence herbicidal action; type: in vivo, Alopecurus myosuroides; details: 80 g/ha, scored after 3 weeks
Text: as §1

AMARE [3] = test: Pre-emergence herbicidal action; type: in vivo, Amaranthus retroflexus; details: scored after 3 weeks
Text: as §1, with “percent.” for “percent. In the experiments that follow, the herbicidal action of the compounds of the invention and that of the corresponding known racemic compounds closest from WO2012126932 and WO2018202535 were compared under the above-specified conditions by the pre-emergence and post-emergence method. The example numbers given in the tables relate to the compounds disclosed in the respective documents.”

AVEFA = test: Pre-emergence herbicidal action; type: in vivo, Avena fatua; details: 80 g/ha, scored after 3 weeks
Text: as §1

ECHCG [4] = test: Pre-emergence herbicidal action; type: in vivo, Echinochloa crus-galli; details: scored after 3 weeks
Text: as §1, with “percent.” for “percent. In the experiments that follow, the herbicidal action of the compounds of the invention and that of the corresponding known racemic compounds closest from WO2012126932 and WO2018202535 were compared under the above-specified conditions by the pre-emergence and post-emergence method. The example numbers given in the tables relate to the compounds disclosed in the respective documents.”

LOLRI = test: Pre-emergence herbicidal action; type: in vivo, Lolium rigidum; details: 80 g/ha, scored after 3 weeks
Text: as §1

MATIN [5] = test: Pre-emergence herbicidal action; type: in vivo, Matricaria inodora; details: scored after 3 weeks
Text: as §1

POLCO [6] = test: Pre-emergence herbicidal action; type: in vivo, Polygonum convolvulus; details: 80 g/ha, scored after 3 weeks
Text: as §1

SETVI [7] = test: Pre-emergence herbicidal action; type: in vivo, Setaria viridis; details: scored after 3 weeks
Text: as §1

VERPE [8] = test: Pre-emergence herbicidal action; type: in vivo, Veronica persica; details: scored after 3 weeks
Text: as §1

VIOTR [9] = test: Pre-emergence herbicidal action; type: in vivo, Viola tricolor; details: scored after 3 weeks
Text: as §1, with “percent.” for “percent. In the experiments that follow, the herbicidal action of the compounds of the invention and that of the corresponding known racemic compounds closest from WO2012126932 and WO2018202535 were compared under the above-specified conditions by the pre-emergence and post-emergence method. The example numbers given in the tables relate to the compounds disclosed in the respective documents.”

AMARE [10] = test: Post-emergence herbicidal action; type: in vivo, Amaranthus retroflexus; details: assessed after about 3 weeks
Experimental: as §2, with “percent.” for “percent. In the experiments that follow, the herbicidal action of the compounds of the invention and that of the corresponding known racemic compounds closest from WO2012126932 and WO2018202535 were compared under the above-specified conditions by the pre-emergence and post-emergence method. The example numbers given in the tables relate to the compounds disclosed in the respective documents.”

ECHCG [11] = test: Post-emergence herbicidal action; type: in vivo, Echinochloa crus-galli; details: for Herbicidal action against ECHCG: 5 g a.i./ha, comparative experiment; for Post-emergence action against ECHCG: assessed after about 3 weeks
Experimental: as §2

MATIN [12] = test: Post-emergence herbicidal action; type: in vivo, Matricaria inodora; details: assessed after about 3 weeks
Experimental: as §2, with “percent.” for “percent. In the experiments that follow, the herbicidal action of the compounds of the invention and that of the corresponding known racemic compounds closest from WO2012126932 and WO2018202535 were compared under the above-specified conditions by the pre-emergence and post-emergence method. The example numbers given in the tables relate to the compounds disclosed in the respective documents.”

PHBPU = test: Post-emergence herbicidal action; type: in vivo, Pharbitis purpurea; details: assessed after about 3 weeks
Experimental: as §2, with “percent.” for “percent. In the experiments that follow, the herbicidal action of the compounds of the invention and that of the corresponding known racemic compounds closest from WO2012126932 and WO2018202535 were compared under the above-specified conditions by the pre-emergence and post-emergence method. The example numbers given in the tables relate to the compounds disclosed in the respective documents.”

POLCO [13] = test: Post-emergence herbicidal action; type: in vivo, Polygonum convolvulus; details: 20 g/ha, assessed after about 3 weeks
Experimental: as §2, with “percent.” for “percent. In the experiments that follow, the herbicidal action of the compounds of the invention and that of the corresponding known racemic compounds closest from WO2012126932 and WO2018202535 were compared under the above-specified conditions by the pre-emergence and post-emergence method. The example numbers given in the tables relate to the compounds disclosed in the respective documents.”

SETVI [14] = test: Post-emergence herbicidal action; type: in vivo, Setaria viridis; details: assessed after about 3 weeks
Experimental: as §2

VERPE [15] = test: Post-emergence herbicidal action; type: in vivo, Veronica persica; details: assessed after about 3 weeks
Experimental: as §2

VIOTR [16] = test: Post-emergence herbicidal action; type: in vivo, Viola tricolor; details: assessed after about 3 weeks
Experimental: as §2

DIGSA [17] = test: Pre-emergence herbicidal action; type: in vivo, Digitaria sanguinalis; details: scored after 3 weeks
Text: as §1, with “percent.” for “percent. In the experiments that follow, the herbicidal action of the compounds of the invention and that of the corresponding known racemic compounds closest from WO2012126932 and WO2018202535 were compared under the above-specified conditions by the pre-emergence and post-emergence method. The example numbers given in the tables relate to the compounds disclosed in the respective documents.”

STEME [18] = test: Pre-emergence herbicidal action; type: in vivo, Stellaria media; details: scored after 3 weeks
Text: as §1

DIGSA [19] = test: Post-emergence herbicidal action; type: in vivo, Digitaria sanguinalis; details: assessed after about 3 weeks
Experimental: as §2

STEME [20] = test: Post-emergence herbicidal action; type: in vivo, Stellaria media; details: 20 g/ha, assessed after about 3 weeks
Experimental: as §2

Structure (SMILES)	Damage to ZEAMX (ZEAMX; 20 g a.i./ha) [%]	Damage to ZEAMX (ZEAMX; 80 g a.i./ha) [%]	Damage to TRZAS (TRZAS [1]; 20 g a.i./ha) [%]	Damage to TRZAS (TRZAS [1]; 80 g a.i./ha) [%]	Damage to GLXMA (GLXMA) [%]	Damage to BRSNW (BRSNW) [%]	Damage to ORYZA (ORYZA) [%]	Damage to TRZAS (TRZAS [2]; 5 g a.i./ha) [%]	Damage to TRZAS (TRZAS [2]; 20 g a.i./ha) [%]	Pre-emergence action against AMARE (AMARE [3]; 20 g/ha) [%]	Pre-emergence action against AMARE (AMARE [3]; 80 g/ha) [%]	Pre-emergence action against ECHCG (ECHCG [4]; 20 g/ha) [%]	Pre-emergence action against ECHCG (ECHCG [4]; 80 g/ha) [%]	Pre-emergence action against MATIN (MATIN [5]; 80 g/ha) [%]	Pre-emergence action against SETVI (SETVI [7]; 80 g/ha) [%]	Pre-emergence action against VIOTR (VIOTR [9]; 20 g/ha) [%]	Pre-emergence action against VIOTR (VIOTR [9]; 80 g/ha) [%]	Post-emergence action against AMARE (AMARE [10]; 5 g/ha) [%]	Post-emergence action against AMARE (AMARE [10]; 20 g/ha) [%]	Herbicidal action against ECHCG (ECHCG [11]) [%]	other results
Cc1c(C(=O)Nc2nnco2)ccc(C(F)(F)F)c1[S+](C)[O-] (racemic) [1-144 from WO2012126932, 2-methyl-N-(1,3,4-oxadiazol-2-yl)-3-[(rac)-methylsulfinyl]-4-(trifluoromethyl)benzamide, reference compound]	20	30	50	90	80	100	60	40	50												
C[S+]([O-])c1c(C(F)F)ccc(C(=O)Nc2nnco2)c1Cl (stereo in doubt) [Example I-2, 2-chloro-N-(1,3,4-oxadiazol-2-yl)-3-[(S)-methylsulfinyl]-4-(difluoromethyl)benzamide]			20	70	30		0			100	100	100	100	100	100	100	100	100	100	90	Pre-emergence action against ALOMY (ALOMY): 90%; Pre-emergence action against AVEFA (AVEFA): 100%; Pre-emergence action against LOLRI (LOLRI): 90%; Pre-emergence action against MATIN (MATIN [5]; 20 g/ha): 100%; Pre-emergence action against POLCO (POLCO [6]): 90%; Pre-emergence action against SETVI (SETVI [7]; 20 g/ha): 100%; Pre-emergence action against VERPE (VERPE [8]; 20 g/ha): 80%; Pre-emergence action against VERPE (VERPE [8]; 80 g/ha): 80%; Post-emergence action against ECHCG (ECHCG [11]; 5 g/ha): 90%; Post-emergence action against ECHCG (ECHCG [11]; 20 g/ha): 90%; Post-emergence action against MATIN (MATIN [12]; 5 g/ha): 90%; Post-emergence action against MATIN (MATIN [12]; 20 g/ha): 90%; Post-emergence action against PHBPU (PHBPU; 20 g/ha): 90%; Post-emergence action against POLCO (POLCO [13]): 80%; Post-emergence action against SETVI (SETVI [14]; 5 g/ha): 90%; Post-emergence action against SETVI (SETVI [14]; 20 g/ha): 90%; Post-emergence action against VERPE (VERPE [15]; 5 g/ha): 90%; Post-emergence action against VERPE (VERPE [15]; 20 g/ha): 100%; Post-emergence action against VIOTR (VIOTR [16]; 5 g/ha): 90%; Post-emergence action against VIOTR (VIOTR [16]; 20 g/ha): 100%
Cc1c(C(=O)Nc2nnco2)ccc(C(F)(F)F)c1[S+](C)[O-] (stereo in doubt) [Example I-3, 2-methyl-N-(1,3,4-oxadiazol-2-yl)-3-[(S)-methylsulfinyl]-4-(trifluoromethyl)benzamide]	0	0	0	30	50	70	30	20	30	100	100	90	100	90	90	90	100	90	90		Pre-emergence action against DIGSA (DIGSA [17]; 20 g/ha): 100%; Pre-emergence action against DIGSA (DIGSA [17]; 80 g/ha): 100%; Pre-emergence action against STEME (STEME [18]; 20 g/ha): 80%; Pre-emergence action against STEME (STEME [18]; 80 g/ha): 100%; Post-emergence action against DIGSA (DIGSA [19]; 5 g/ha): 90%; Post-emergence action against DIGSA (DIGSA [19]; 20 g/ha): 90%; Post-emergence action against ECHCG (ECHCG [11]; 5 g/ha): 80%; Post-emergence action against ECHCG (ECHCG [11]; 20 g/ha): 90%; Post-emergence action against MATIN (MATIN [12]; 20 g/ha): 80%; Post-emergence action against PHBPU (PHBPU; 5 g/ha): 80%; Post-emergence action against PHBPU (PHBPU; 20 g/ha): 80%; Post-emergence action against SETVI (SETVI [14]; 20 g/ha): 90%; Post-emergence action against STEME (STEME [20]): 80%; Post-emergence action against VIOTR (VIOTR [16]; 20 g/ha): 90%
C[S+]([O-])c1c(C(F)F)ccc(C(=O)Nc2nnco2)c1Cl (racemic) [Racemate, known from WO2018202535, 2-chloro-N-(1,3,4-oxadiazol-2-yl)-3-[(rac)-methylsulfinyl]-4-(difluoromethyl)benzamide, reference compound]			70	100	80		60													70	
